From ChEMBL document CHEMBL3046520, “Synthesis of novel 2-phenyl-3-[2-(substituted amino) ethylamino] quinazolin-4(3H)-ones as a new class of H1-antihistaminic agents” (Med Chem Res, 2013)

Columns and labels:
Mus musculus [1] = assay: Induction of sedation-hypnotic activity in Mus musculus Albino Swiss (mouse) assessed as reduction in locomotor activity at 5 mg/kg, po measured after 3 hr by actophotometer; type: organism-based; design: dose 5 mg/kg, route oral; scale not given: the % may be the effect or the level left; details: in vivo
Mus musculus [2] = assay: Induction of sedation-hypnotic activity in Mus musculus Albino Swiss (mouse) assessed as reduction in locomotor activity at 5 mg/kg, po measured after 2 hr by actophotometer; type: organism-based; design: dose 5 mg/kg, route oral; scale not given: the % may be the effect or the level left; details: in vivo
Mus musculus [3] = assay: Induction of sedation-hypnotic activity in Mus musculus Albino Swiss (mouse) assessed as reduction in locomotor activity at 5 mg/kg, po measured after 1 hr by actophotometer; type: organism-based; design: dose 5 mg/kg, route oral; scale not given: the % may be the effect or the level left; details: in vivo
Mus musculus [4] = assay: Induction of sedation-hypnotic activity in Mus musculus Albino Swiss (mouse) assessed as reduction in locomotor activity at 5 mg/kg, po measured after 0.5 hr by actophotometer; type: organism-based; design: dose 5 mg/kg, route oral; scale not given: the % may be the effect or the level left; details: in vivo
Cavia porcellus [5] = assay: In vivo H1-antihistaminic activity in Cavia porcellus Dunkin-Hartley (guinea pig) assessed as time of onset of convulsion at 10 mg/kg, po; type: functional
Cavia porcellus [6] = assay: In vivo H1-antihistaminic activity in conscious Cavia porcellus Dunkin-Hartley (guinea pig) assessed as protection against histamine-induced bronchospasm at 10 mg/kg, po; type: functional
Cavia porcellus [7] = assay: In vivo H1-antihistaminic activity in Cavia porcellus Dunkin-Hartley (guinea pig) assessed as time of onset of convulsion at 25 mg/kg, ip; type: functional; details: route intraperitoneal
Cavia porcellus [8] = assay: In vivo H1-antihistaminic activity in conscious Cavia porcellus Dunkin-Hartley (guinea pig) assessed as protection against histamine-induced bronchospasm at 25 mg/kg, ip; type: functional; details: route intraperitoneal

Row | Compound | Activity (Mus musculus [1]) | Activity (Mus musculus [2]) | Activity (Mus musculus [3]) | Activity (Mus musculus [4]) | Time (Cavia porcellus [5]) | Activity (Cavia porcellus [6]) | Time (Cavia porcellus [7]) | Activity (Cavia porcellus [8])
1 | O=c1c2ccccc2nc(-c2ccccc2)n1NCCNc1ccccc1 | 10.11% | 12.32% | 11.55% | 11.32% | 402 s | 71.64% |  | 
2 | O=c1c2ccccc2nc(-c2ccccc2)n1NCCNc1ccc(Cl)cc1 | 6.48% | 10.73% | 9.42% | 8.28% | 416 s | 72.12% |  | 
3 | O=c1c2ccccc2nc(-c2ccccc2)n1NCCN1CCNCC1 | 8.21% | 10.79% | 10.42% | 9.35% | 433 s | 73.67% |  | 
4 | O=c1c2ccccc2nc(-c2ccccc2)n1NCCNCc1ccccc1 | 8.9% | 12.31% | 11.52% | 10.42% | 366 s | 68.85% |  | 
5 | O=c1c2ccccc2nc(-c2ccccc2)n1NCCN1CCOCC1 | 7.32% | 10.41% | 9.32% | 8.43% | 428 s | 73.36% |  | 
6 | COc1ccc(NCCNn2c(-c3ccccc3)nc3ccccc3c2=O)cc1 | 8.53% | 10.94% | 10.43% | 9.03% | 398 s | 71.35% |  | 
7 | O=c1c2ccccc2nc(-c2ccccc2)n1NCCNc1nccs1 | 7.43% | 9.85% | 9.52% | 8.21% | 409 s | 72.12% |  | 
8 | Cc1ccccc1NCCNn1c(-c2ccccc2)nc2ccccc2c1=O | 7.13% | 10.38% | 9.88% | 9.42% | 375 s | 69.6% |  | 
9 | COc1cccc(NCCNn2c(-c3ccccc3)nc3ccccc3c2=O)c1 | 9.32% | 11.63% | 10.89% | 10.35% | 382 s | 70.15% |  | 
10 | O=c1c2ccccc2nc(-c2ccccc2)n1NCCNc1ccc([N+](=O)[O-])cc1 | 8.32% | 11.04% | 9.98% | 9.51% | 394 s | 71.06% |  | 
11 | CN(C)CCC(c1ccc(Cl)cc1)c1ccccn1.O=C(O)/C=C\C(=O)O (stereo unspecified) [CHLORPHENIRAMINE MALEATE] | 29.58% | 34.8% | 38.8% | 32.04% |  |  | 394 s | 70.09%
